Molecules are shown by their SMILES.

Among the data in patent US8563559B2 (Rigel Pharmaceuticals, Inc., priority 2006, dated 2013) are IC50 values, retold here.

The assay concerns the target T1, Axl (Homo sapiens, UniProt P30530).
T1 construct: endogenous in cells; host or cells: HeLa
T1 sequence (P30530 26-894): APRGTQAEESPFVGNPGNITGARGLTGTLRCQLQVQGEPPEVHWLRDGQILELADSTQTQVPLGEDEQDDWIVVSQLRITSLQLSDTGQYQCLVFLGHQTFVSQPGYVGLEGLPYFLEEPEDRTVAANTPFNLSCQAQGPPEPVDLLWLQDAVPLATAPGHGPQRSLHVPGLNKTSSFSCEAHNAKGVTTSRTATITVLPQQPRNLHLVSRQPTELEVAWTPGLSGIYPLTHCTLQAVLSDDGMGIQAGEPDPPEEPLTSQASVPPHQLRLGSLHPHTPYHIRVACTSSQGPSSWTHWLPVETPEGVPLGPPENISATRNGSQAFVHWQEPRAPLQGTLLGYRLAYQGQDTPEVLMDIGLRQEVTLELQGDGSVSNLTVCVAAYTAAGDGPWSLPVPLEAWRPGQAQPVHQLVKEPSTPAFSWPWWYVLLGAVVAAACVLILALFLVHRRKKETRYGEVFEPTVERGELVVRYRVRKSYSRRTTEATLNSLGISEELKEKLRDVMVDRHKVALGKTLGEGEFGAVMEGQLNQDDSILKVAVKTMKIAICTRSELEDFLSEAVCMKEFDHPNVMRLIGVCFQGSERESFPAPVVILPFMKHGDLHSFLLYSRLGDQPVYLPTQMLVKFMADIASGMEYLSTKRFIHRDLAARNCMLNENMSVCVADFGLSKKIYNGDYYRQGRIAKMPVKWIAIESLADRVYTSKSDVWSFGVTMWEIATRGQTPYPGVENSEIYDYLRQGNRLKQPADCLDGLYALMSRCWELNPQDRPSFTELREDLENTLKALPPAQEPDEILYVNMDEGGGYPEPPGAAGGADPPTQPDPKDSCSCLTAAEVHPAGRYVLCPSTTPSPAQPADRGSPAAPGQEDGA
The assay is described as follows: Phospho-AKT in-cell Western assay (inhibition of Axl activity). The format is cell-based. Particulars: Table 1, formula (Ia); Hela cells, Axl antibody cross-linking stimulation, phospho-Akt chemiluminescence normalized to relative cell number. As to the method: The compounds of the invention were tested in the following assay for their ability to inhibit Axl activity.
Phospho-AKT in-Cell Western Assay
• Cell culture plate: 96 well assay plate (Corning 3610), white, clear bottom, tissue-culture treated. • Cells: Hela cells. • Starvation medium: For Axl stimulation: 0.5% FCS (fetal calf serum) in DMEM, plus Axl/Fc (extracellular domain of AXL fused to immunoglobulin Fc region) (R&D, 154-AL) 500 ng/mL. • For EGF (epidermal growth factor) stimulation: 0.5% FCS in DMEM (Dulbecco's modified Eagles medium). • Poly-L-Lysine 0.01% solution (the working solution): 10 μg/ml, dilute In PBS (phosphate buffered saline). • Axl antibody cross-linking: • 1st: Mouse anti-Axl (R&D, MAB154). • 2nd: Biotin-SP-conjugated AffiniPure goat anti-mouse IgG (H+L) (Jackson ImmunoResearch #115-065-003). • Fixing buffer: 4% formaldehyde in PBS. • Wash buffer: 0.1% TritonX-100 in PBS. • Quenching buffer: 3% H2O2, 0.1% Azide in wash buffer, Azide and hydrogen peroxide 1(H2O2) are added fresh. • Blocking buffer: 5% BSA in TBST (tris buffered saline plus 0.1% Tween 20). • Primary antibody: Rabbit anti-human Phospho-Akt antibody (Cell Signaling 9271): 1×250 diluted in blocking buffer. • Secondary antibody: HRP (horse radish peroxidase)-conjugated Goat anti-Rabbit secondary, stock solution: Jackson ImmunoResearch (Goat anti-Rabbit HRP, #111-035-144) 1:1 diluted in glycerol, store at −20° C. The working solution: 1×2000 dilution of stock in blocking buffer. • Chemiluminescent working solution (Pierce, 37030): SuperSignal ELISA (enzyme linked immunosorbant assay) Pico Chemiluminescent substrate. • Crystal Violet solution: Stock: 2.5% Crystal violet in methanol, filtered and kept at ambient temperature. The working solution: dilute the stock 1:20 with PBS immediately before use. • 10% SDS: working solution: 5% SDS (sodium dodecylsulfate), diluted in PBS Methods: Day 1:
A 96 well TC (tissue culture treated) plate was coated with 10 μg/mL poly-L-Lysine at 37° C. for 30 min, washed twice with PBS, and air-dried for 5 minutes before cells were added. Hela cells were seeded at 10,000 cells/well and the cells were starved in 100 μL starvation medium containing Axl/Fc for 24 hrs.
The cells were pre-treated with test compounds by adding 100 μL of 2× test compound to the starvation medium on the cells. The cells were incubated at 37° C. for 1 hr before stimulation.
The cells were stimulated by Axl-antibody cross-linking as follows: A 5×1st/2nd Axl antibody mixture was made (37.5 μg/mL 1st/100 μg/mL 2nd) in starvation medium and nutated at 4° C. with thorough mixing for 1-2 hours for clustering. The resulting mix was warmed to 37° C. 50 μL of 5×Axl 1st/2nd of antibody cluster was added to the cells and the cells were incubated at 37° C. for 5 min.
After 5 minutes stimulation, the plate was flicked to remove medium and the plate was tapped onto paper towels. Formaldehyde (4.0% in PBS, 100 μL) was added to fix the cells and the cells were incubated at ambient temperature for 20 min without shaking.
The cells were washed with a plate washer buffer to remove the formaldehyde solution. The plate was flicked to removed excess wash buffer and tapped onto paper towels. Quenching buffer (100 μL) was added to each well and the cells were incubated at ambient temperature for 20 minutes without shaking.
The cells were washed with a plate washer buffer to remove the quenching buffer. Blocking buffer (100 μL) was added and the cells were incubated at ambient temperature for at least an hour with gentle shaking.
The cells were washed with a plate washer buffer and diluted primary antibody (50 μL) was added to each well (blocking buffer was added to the negative control wells instead). The plates were incubated overnight at 4° C. with gentle shaking.
The wash buffer was removed, diluted secondary antibody (100 μL) was added, and the cells were incubated at ambient temperature for 1 hour with gentle shaking. […]
A word on the IC50: it is the concentration needed to halve the response being measured. Lower therefore signals greater potency in that assay. As to `CNC(=O)[C@H]1C[C@H]2C[C@H](C2(C)C)[C@@]1(C)Nc1nc(Nc2ccc(OCCN3CCCC3)cc2)ncc1Cl` [Compound 1, (1R,2R,3S,5R)-2-(5-chloro-2-(4-(2-(pyrrolidin-1-yl)ethoxy)phenylamino)pyrimidin-4-ylamino)-N,2,6,6-tetramethylbicyclo[3.1.1]heptane-3-carboxamide], the half-inhibitory concentration (IC50) is less than 1000 nM.

The molecule `CNC(=O)[C@H]1C[C@H]2C[C@H](C2(C)C)[C@@]1(C)Nc1nc(Nc2ccc(N3CCOCC3)cc2)ncc1Cl` [Compound 2, (1R,2R,3S,5R)-2-(5-chloro-2-(4-morpholinophenylamino)pyrimidin-4-ylamino)-N,2,6,6-tetramethylbicyclo[3.1.1]heptane-3-carboxamide] displayed an IC50 of 1000 to 10000 nM.

As for `CNC(=O)[C@H]1C[C@H]2C[C@H](C2(C)C)[C@@]1(C)Nc1nc(Nc2ccc(OCCN3CCCC3)c(F)c2)ncc1Cl` [Compound 3, (1R,2R,3S,5R)-2-(5-chloro-2-(3-fluoro-4-(2-(pyrrolidin-1-yl)ethoxy)phenylamino)pyrimidin-4-ylamino)-N,2,6,6-tetramethylbicyclo[3.1.1]heptane-3-carboxamide], the IC50 is less than 1000 nM.

`CNC(=O)[C@H]1C[C@H]2C[C@H](C2(C)C)[C@@]1(C)Nc1nc(Nc2ccc(N3CCN(C)CC3)c(F)c2)ncc1Cl` [Compound 4, (1R,2R,3S,5R)-2-(5-chloro-2-(3-fluoro-4-(4-methylpiperazin-1-yl)phenylamino)pyrimidin-4-ylamino)-N,2,6,6-tetramethylbicyclo[3.1.1]heptane-3-carboxamide]: the concentration for half-maximal inhibition (IC50) is less than 1000 nM. For `CNC(=O)[C@H]1C[C@H]2C[C@H](C2(C)C)[C@@]1(C)Nc1nc(Nc2ccc(N3CCN(C)CC3)c(Cl)c2)ncc1Cl` [Compound 5, (1R,2R,3S,5R)-2-(5-chloro-2-(3-chloro-4-(4-methylpiperazin-1-yl)phenylamino)pyrimidin-4-ylamino)-N,2,6,6-tetramethylbicyclo[3.1.1]heptane-3-carboxamide], the IC50 was less than 1000 nM. In turn, `CNC(=O)[C@H]1C[C@H]2C[C@H](C2(C)C)[C@@]1(C)Nc1nc(Nc2ccc(OCC(C)(C)N3CCCC3)cc2)ncc1Cl` [Compound 8, (1R,2R,3S,5R)-2-(5-chloro-2-(4-(2-methyl-2-(pyrrolidin-1-yl)propoxy)phenylamino)pyrimidin-4-ylamino)-N,2,6,6-tetramethylbicyclo[3.1.1]heptane-3-carboxamide] registered an IC50 of less than 1000 nM.

In the case of `CNC(=O)[C@H]1C[C@H]2C[C@H](C2(C)C)[C@@]1(C)Nc1nc(Nc2ccc(OCCNC3CCCC3)cc2)ncc1Cl` [Compound 9, (1R,2R,3S,5R)-2-(5-chloro-2-(4-(2-(cyclopentylamino)ethoxy)phenylamino)pyrimidin-4-ylamino)-N,2,6,6-tetramethylbicyclo[3.1.1]heptane-3-carboxamide], the IC50 is less than 1000 nM.

`CNC(=O)[C@H]1C[C@H]2C[C@H](C2(C)C)[C@@]1(C)Nc1nc(Nc2ccc(C(=O)N3CCN(C4CCCCC4)CC3)cc2)ncc1Cl` [Compound 10, (1R,2R,3S,5R)-2-(5-chloro-2-(4-(4-cyclohexylpiperazine-1-carbonyl)phenylamino)pyrimidin-4-ylamino)-N,2,6,6-tetramethylbicyclo[3.1.1]heptane-3-carboxamide] registered an IC50 of less than 1000 nM.

As for `CNC(=O)[C@H]1C[C@H]2C[C@H](C2(C)C)[C@@]1(C)Nc1nc(Nc2ccc(N3CCN(c4ccc(F)cc4)CC3)cc2)ncc1Cl` [Compound 11, (1R,2R,3S,5R)-2-(5-chloro-2-(4-(4-(4-fluorophenyl)piperazin-1-yl)phenylamino)pyrimidin-4-ylamino)-N,2,6,6-tetramethylbicyclo[3.1.1]heptane-3-carboxamide], the IC50 is more than 20000 nM. To `CNC(=O)[C@H]1C[C@H]2C[C@H](C2(C)C)[C@@]1(C)Nc1nc(Nc2ccc(C3CCN(C)CC3)cc2)ncc1Cl` [Compound 12, (1R,2R,3S,5R)-2-(5-chloro-2-(4-(1-methylpiperidin-4-yl)phenylamino)pyrimidin-4-ylamino)-N,2,6,6-tetramethylbicyclo[3.1.1]heptane-3-carboxamide] belongs less than 1000 nM; to `CNC(=O)[C@H]1C[C@H]2C[C@H](C2(C)C)[C@@]1(C)Nc1nc(Nc2ccc(N3CCN(C(C)=O)CC3)cc2)ncc1Cl` [Compound 13, (1R,2R,3S,5R)-2-(2-(4-(4-acetylpiperazin-1-yl)phenylamino)-5-chloropyrimidin-4-ylamino)-N,2,6,6-tetramethylbicyclo[3.1.1]heptane-3-carboxamide], 1000 to 10000 nM. Then `CNC(=O)[C@H]1C[C@H]2C[C@H](C2(C)C)[C@@]1(C)Nc1nc(Nc2ccc(C(=O)N3CCN(C)CC3)c(Cl)c2)ncc1Cl` [Compound 14], with less than 1000 nM. As to `CCN1CCN(c2cc(Nc3ncc(Cl)c(N[C@@]4(C)[C@@H](C(=O)NC)C[C@H]5C[C@@H]4C5(C)C)n3)ccc2Cl)CC1` [Compound 15, (1R,2R,3S,5R)-2-(5-chloro-2-(4-chloro-3-(4-ethylpiperazin-1-yl)phenylamino)pyrimidin-4-ylamino)-N,2,6,6-tetramethylbicyclo[3.1.1]heptane-3-carboxamide], the IC50 was 1000 to 10000 nM. Then `CNC(=O)[C@H]1C[C@H]2C[C@H](C2(C)C)[C@@]1(C)Nc1nc(Nc2ccc(Cl)c(N3CCN(C(C)=O)CC3)c2)ncc1Cl` [Compound 16, (1R,2R,3S,5R)-2-(2-(3-(4-acetylpiperazin-1-yl)-4-chlorophenylamino)-5-chloropyrimidin-4-ylamino)-N,2,6,6-tetramethylbicyclo[3.1.1]heptane-3-carboxamide], with 1000 to 10000 nM; and `CN1CCN(c2ccc(Nc3ncc(Cl)c(N[C@@]4(CCOCc5ccccc5)[C@@H](C(N)=O)C[C@H]5C[C@@H]4C5(C)C)n3)cc2F)CC1` [Compound 17, (1R,2R,3S,5R)-2-(2-(benzyloxy)ethyl)-2-(5-chloro-2-(3-fluoro-4-(4-methylpiperazin-1-yl)phenylamino)pyrimidin-4-ylamino)-6,6-dimethylbicyclo[3.1.1]heptane-3-carboxamide], with more than 20000 nM.
